Measurements published in patent US20230339878A1, “SLC26A3 INHIBITORS AND USE THEREOF” (THE REGENTS OF THE UNIVERSITY OF CALIFORNIA, priority 2018, published 2023).
Entries after “also recorded” stand apart in the source; their conditions may differ.

Tests used:
[1] = target: T1, slc26a9 (Mus musculus, UniProt Q8BU91); test: Selectivity: slc26a9 Cl-/I- exchange in HEK293 cells; assay type: cell-based, murine; details: 10 µM
T1 construct: host or cells: HEK293 cells
T1 sequence (Q8BU91 1-790): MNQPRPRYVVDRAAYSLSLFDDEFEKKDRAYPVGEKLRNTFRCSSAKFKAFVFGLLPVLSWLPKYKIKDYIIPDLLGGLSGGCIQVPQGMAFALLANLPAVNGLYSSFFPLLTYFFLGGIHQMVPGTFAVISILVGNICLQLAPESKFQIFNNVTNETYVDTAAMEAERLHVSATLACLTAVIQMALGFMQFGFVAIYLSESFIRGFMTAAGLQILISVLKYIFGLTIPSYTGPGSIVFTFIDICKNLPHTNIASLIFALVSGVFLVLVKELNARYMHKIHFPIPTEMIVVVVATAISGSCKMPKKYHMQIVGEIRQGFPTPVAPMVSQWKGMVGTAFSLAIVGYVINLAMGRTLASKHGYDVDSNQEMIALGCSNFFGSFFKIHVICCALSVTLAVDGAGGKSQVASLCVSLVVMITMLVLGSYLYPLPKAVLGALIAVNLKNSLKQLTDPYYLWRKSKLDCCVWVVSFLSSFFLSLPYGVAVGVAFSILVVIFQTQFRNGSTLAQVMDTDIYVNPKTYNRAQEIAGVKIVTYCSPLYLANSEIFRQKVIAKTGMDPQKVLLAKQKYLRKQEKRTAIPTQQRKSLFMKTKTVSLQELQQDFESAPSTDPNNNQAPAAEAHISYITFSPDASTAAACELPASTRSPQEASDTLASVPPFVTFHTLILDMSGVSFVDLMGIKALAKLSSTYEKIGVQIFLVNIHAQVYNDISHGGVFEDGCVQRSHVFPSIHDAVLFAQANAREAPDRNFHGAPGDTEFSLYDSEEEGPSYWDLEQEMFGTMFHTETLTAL
Excerpt: (§1) To investigate Compound A1 selectivity, transport assays were done on a panel of SLC26-family homologs, and other relevant epithelial ion transporters and channels. […] In separate studies, to investigate possible action of Compound A1 on multiple ion transporters and channels in a human epithelium, human bronchial epithelial (HBE) cells were studied by short-circuit current, with successive additions of amiloride (to block the epithelial sodium channel ENaC), forskolin, CFTRinh-172 (to block CFTR), and ATP (to activate the Ca^2+-activated chloride channel, CaCC) (FIG. 5C).
HEK293 cells transfected with pIRES-YFP-slc26a9 were plated in 96-well black-walled, clear-bottom tissue culture plates (Corning Life Sciences, Tewksbury, MA) after coating with FNC Coating Mix (AthenaES, Baltimore, MD). […] Assays of slc26a9-mediated anion exchange were done by initially recording YFP fluorescence prior to addition of 100 µL of NaI-substituted PBS to test wells, with the initial rate of Cl^-/I^- exchange deduced from fluorescence intensity by single exponential regression. […] To assay SLC26A3 function, HEK293 cells transduced with lentiviral particles generated from the pLVX-IRES-mCherry-SLC26A3 transfer vector were transfected to express YFP for Cl^-/I^- exchange assays as described above; red fluorescence images were acquired to confirm SLC26A3 expression in cells. […]

[2] = target: T2, CFTR (Homo sapiens, UniProt P13569); test: Selectivity: CFTR (forskolin stimulated) YFP assay; assay type: cell-based; details: 10 µM
T2 construct: expressed in transfected cells; host or cells: FRT cells expressing YFP and CFTR
Excerpt: as §1
YFP-based assays of CFTR, pendrin and TMEM16A were as described. HEK cells transfected to express YFP and SLC26A3, slc26a6 or slc26a9 were functionally assayed using a Cl^-/I^- exchange protocol. Assays of Cl^-/HCO3^- exchange were done using BCECF as an intracellular pH indicator as described for pendrin. […]
HEK293 cells transfected with pIRES-YFP-slc26a9 were plated in 96-well black-walled, clear-bottom tissue culture plates (Corning Life Sciences, Tewksbury, MA) after coating with FNC Coating Mix (AthenaES, Baltimore, MD). […] Assays of slc26a9-mediated anion exchange were done by initially recording YFP fluorescence prior to addition of 100 µL of NaI-substituted PBS to test wells, with the initial rate of Cl^-/I^- exchange deduced from fluorescence intensity by single exponential regression. […]

T2 sequence (P13569 whole entry, species assumed): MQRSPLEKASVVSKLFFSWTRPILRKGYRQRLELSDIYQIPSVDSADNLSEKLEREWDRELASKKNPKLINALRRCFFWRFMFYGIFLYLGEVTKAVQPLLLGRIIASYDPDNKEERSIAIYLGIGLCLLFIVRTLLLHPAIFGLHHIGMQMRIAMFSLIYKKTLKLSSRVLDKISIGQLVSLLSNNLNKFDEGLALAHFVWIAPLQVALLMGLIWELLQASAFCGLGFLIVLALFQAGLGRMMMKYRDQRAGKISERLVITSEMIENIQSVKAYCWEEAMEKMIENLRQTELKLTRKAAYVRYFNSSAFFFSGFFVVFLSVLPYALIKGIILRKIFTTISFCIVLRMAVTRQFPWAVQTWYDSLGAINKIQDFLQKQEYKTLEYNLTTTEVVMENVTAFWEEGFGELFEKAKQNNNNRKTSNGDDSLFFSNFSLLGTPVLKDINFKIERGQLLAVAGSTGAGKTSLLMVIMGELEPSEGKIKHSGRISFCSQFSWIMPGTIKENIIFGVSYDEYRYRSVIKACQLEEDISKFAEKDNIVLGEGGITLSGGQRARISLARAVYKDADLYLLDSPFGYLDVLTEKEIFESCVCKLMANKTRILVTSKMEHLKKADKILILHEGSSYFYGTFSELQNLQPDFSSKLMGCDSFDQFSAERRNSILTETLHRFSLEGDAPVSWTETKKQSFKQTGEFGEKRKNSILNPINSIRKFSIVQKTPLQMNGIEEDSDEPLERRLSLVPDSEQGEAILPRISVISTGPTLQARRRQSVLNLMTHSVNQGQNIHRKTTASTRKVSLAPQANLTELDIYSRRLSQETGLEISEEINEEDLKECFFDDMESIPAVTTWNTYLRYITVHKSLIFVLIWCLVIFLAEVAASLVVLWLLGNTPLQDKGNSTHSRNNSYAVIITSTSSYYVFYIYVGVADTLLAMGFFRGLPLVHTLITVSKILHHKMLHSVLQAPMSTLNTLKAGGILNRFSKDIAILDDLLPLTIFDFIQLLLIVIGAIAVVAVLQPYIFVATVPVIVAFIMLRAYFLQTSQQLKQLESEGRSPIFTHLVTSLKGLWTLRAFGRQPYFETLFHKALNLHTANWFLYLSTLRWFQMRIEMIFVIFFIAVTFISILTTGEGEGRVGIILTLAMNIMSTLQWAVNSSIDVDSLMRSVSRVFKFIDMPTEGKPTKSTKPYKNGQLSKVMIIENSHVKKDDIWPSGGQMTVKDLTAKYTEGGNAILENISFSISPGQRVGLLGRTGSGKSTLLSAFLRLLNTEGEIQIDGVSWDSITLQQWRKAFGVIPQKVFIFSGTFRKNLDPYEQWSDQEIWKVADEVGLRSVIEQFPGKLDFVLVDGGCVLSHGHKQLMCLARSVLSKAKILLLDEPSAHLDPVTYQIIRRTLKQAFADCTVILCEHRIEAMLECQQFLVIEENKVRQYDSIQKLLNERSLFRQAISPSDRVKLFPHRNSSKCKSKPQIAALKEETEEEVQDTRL

Cc1c(CC(=O)O)c(=O)oc2c(C)c(OCc3cccc(Br)c3)ccc12 [Compound A1]
effect on Cl-/I- exchange activity of slc26a9 [1]: did not alter; also recorded: differences not significant | effect on activity of CFTR [2]: did not alter the activity; also recorded: differences not significant
